Assay results: patent US8399378B2, “Use of neonicotinoids in pest control” (Syngenta Crop Protection LLC, priority 1998, dated 2013)

Experiments:
Type in all cases: in vivo
Heliothis spp. = assay: Maize plot spray test (KnockOut vs conventional maize), action against Heliothis spp.; settings: 6 days; for control (percentage reduction in population, % action): plot (a) maize cv. KnockOut, spray 200, 100, 50, 10, 5, 1 ppm, natural infestation; for control level: plot (b) conventional maize, compound 200, 100, 50, 10, 5, 1 ppm, then same ppm of the endotoxin expressed by KnockOut
Description: (§1) A plot (a) planted with maize cv. KnockOut® and an adjacent plot (b) of the same size which is planted with conventional maize, both showing natural infestation with Ostrinia nubilalis, Spodoptera spp. or Heliothis, are sprayed with an aqueous emulsion spray mixture comprising 200, 100, 50, 10, 5, 1 ppm of Ti-435. Immediately afterwards, plot (b) is treated with an emulsion spray mixture comprising 200, 100, 50, 10, 5, 1 ppm of the endotoxin expressed by KnockOut®. Evaluation takes place 6 days later. The percentage reduction in population (% action) is determined by comparing the number of dead pests on the plants of plot (a) with that on the plants of plot (b).
as §1, with “thiamethoxam.” for “Ti-435.”
as §1, with “imidacloprid.” for “Ti-435.”

Spodoptera littoralis [1] = assay: Spray test on young cotton plants, action against Spodoptera littoralis larvae
Excerpt: (§2) Young transgenic cotton plants which express the δ-endotoxin CryIIIA are sprayed with an aqueous emulsion spray mixture comprising 100, 50, 10, 5, 1 ppm of imidacloprid respectively. After the spray coating has dried on, the cotton plants are populated with 10 adult Anthonomus grandis, 10 Spodoptera littoralis larvae or 10 Heliothis virescens larvae respectively and introduced into a plastic container. Evaluation takes place 3 to 10 days later.
as §2, with “thiamethoxam” for “imidacloprid”
as §2, with “Ti-435” for “imidacloprid”
as §2, with “CryIa(c)” for “CryIIIA”, “Ti-435” for “imidacloprid”
as §2, with “CryIa(c)” for “CryIIIA”, “thiamethoxam” for “imidacloprid”
as §2, with “CryIa(c)” for “CryIIIA”

Spodoptera spp. = assay: Maize plot spray test (KnockOut vs conventional maize), action against Spodoptera spp.; settings: 6 days; for control (percentage reduction in population, % action): plot (a) maize cv. KnockOut, spray 200, 100, 50, 10, 5, 1 ppm, natural infestation; for control level: plot (b) conventional maize, compound 200, 100, 50, 10, 5, 1 ppm, then same ppm of the endotoxin expressed by KnockOut
Description: as §1
as §1, with “thiamethoxam.” for “Ti-435.”
as §1, with “imidacloprid.” for “Ti-435.”

Ostrinia nubilalis = assay: Maize plot spray test (KnockOut vs conventional maize), action against Ostrinia nubilalis; settings: 6 days; for control (percentage reduction in population, % action): plot (a) maize cv. KnockOut, spray 200, 100, 50, 10, 5, 1 ppm, natural infestation; for control level: plot (b) conventional maize, compound 200, 100, 50, 10, 5, 1 ppm, then same ppm of the endotoxin expressed by KnockOut
Description: as §1
as §1, with “thiamethoxam.” for “Ti-435.”
as §1, with “imidacloprid.” for “Ti-435.”

Anthonomus grandis [2] = assay: Spray test on young cotton plants, action against Anthonomus grandis adults; settings: spray 100, 50, 10, 5, 1 ppm, evaluation 3 to 10 days
Excerpt: as §2
as §2, with “thiamethoxam” for “imidacloprid”
as §2, with “Ti-435” for “imidacloprid”
as §2, with “CryIa(c)” for “CryIIIA”, “Ti-435” for “imidacloprid”
as §2, with “CryIa(c)” for “CryIIIA”, “thiamethoxam” for “imidacloprid”
as §2, with “CryIa(c)” for “CryIIIA”

Heliothis virescens [3] = assay: Spray test on young cotton plants, action against Heliothis virescens larvae; settings: non-transgenic cotton treated with compound and conventional CryIIIA-toxin, each 100, 50, 10, 5, 1 ppm
Heliothis virescens [4] = assay: as above; settings: spray 100, 50, 10, 5, 1 ppm, evaluation 3 to 10 days
Excerpt: as §2
as §2, with “thiamethoxam” for “imidacloprid”
as §2, with “Ti-435” for “imidacloprid”, “later. […]” for “later.”

Anthonomus grandis [5] = assay: Spray test on young cotton plants, action against Anthonomus grandis adults; settings: non-transgenic cotton treated with compound and conventional CryIIIA-toxin, each 100, 50, 10, 5, 1 ppm
Spodoptera littoralis [6] = assay: Spray test on young cotton plants, action against Spodoptera littoralis larvae; remark: listed apart in the source
[7] = non-transgenic cotton treated with compound and conventional CryIIIA-toxin, each 100, 50, 10, 5, 1 ppm, comparison arm for CryIa(c) cotton
[8] = transgenic cotton expressing δ-endotoxin CryIa(c), spray 100, 50, 10, 5, 1 ppm, evaluation 3 to 10 days
[9] = transgenic cotton expressing δ-endotoxin CryIIIA, compared with non-transgenic plant
[10] = transgenic cotton expressing δ-endotoxin CryIa(c)
[11] = comparison arm for CryIIIA cotton
[12] = comparison arm for CryIa(c) cotton
[13] = transgenic cotton expressing δ-endotoxin CryIIIA, spray 100, 50, 10, 5, 1 ppm, evaluation 3 to 10 days, compared with non-transgenic plant

SMILES: CN/C(=N\[N+](=O)[O-])NCc1cnc(Cl)s1 [Ti-435]
- control (percentage reduction in population, % action) (Heliothis spp.): Improved control
- control level (Heliothis spp.): ≤ 60%
- control of the tested insects (percentage reduction in population or feeding damage, % action) (Spodoptera littoralis [1]; [7]): insufficient
- control of the tested insects (percentage reduction in population or feeding damage, % action) (Spodoptera littoralis [1]; [8]): superior
- control (percentage reduction in population, % action) (Spodoptera spp.): Improved control
- control level (Spodoptera spp.): ≤ 60%
- control (percentage reduction in population, % action) (Ostrinia nubilalis): Improved control
- control level (Ostrinia nubilalis): ≤ 60%
- control of the tested insects (percentage reduction in population or feeding damage, % action) (Anthonomus grandis [2]; [9]): superior
- control of the tested insects (percentage reduction in population or feeding damage, % action) (Anthonomus grandis [2]; [10]): superior
- control of the tested insects (percentage reduction in population or feeding damage, % action) (Heliothis virescens [3]; [11]): insufficient
- control of the tested insects (percentage reduction in population or feeding damage, % action) (Heliothis virescens [3]; [12]): insufficient
- control of the tested insects (percentage reduction in population or feeding damage, % action) (Heliothis virescens [4]; [9]): superior
- control of the tested insects (percentage reduction in population or feeding damage, % action) (Heliothis virescens [4]; [10]): superior
- control of the tested insects (percentage reduction in population or feeding damage, % action) (Anthonomus grandis [5]; [11]): insufficient
- control of the tested insects (percentage reduction in population or feeding damage, % action) (Anthonomus grandis [5]; [12]): insufficient
- control of the tested insects (percentage reduction in population or feeding damage, % action) (Spodoptera littoralis [6]; non-transgenic cotton treated with compound and conventional CryIIIA-toxin, each 100, 50, 10, 5, 1 ppm, comparison arm for CryIIIA cotton): insufficient
- control of the tested insects (percentage reduction in population or feeding damage, % action) (Spodoptera littoralis [6]; [13]): superior

SMILES: O=[N+]([O-])/N=C1\NCCN1Cc1ccc(Cl)nc1 [imidacloprid]
- control (percentage reduction in population, % action) (Heliothis spp.): Improved control
- control level (Heliothis spp.): ≤ 60%
- control of the tested insects (percentage reduction in population or feeding damage, % action) (Spodoptera littoralis [1]; [7]): insufficient
- control of the tested insects (percentage reduction in population or feeding damage, % action) (Spodoptera littoralis [1]; [8]): superior
- control (percentage reduction in population, % action) (Spodoptera spp.): Improved control
- control level (Spodoptera spp.): ≤ 60%
- control (percentage reduction in population, % action) (Ostrinia nubilalis): Improved control
- control level (Ostrinia nubilalis): ≤ 60%
- control of the tested insects (percentage reduction in population or feeding damage, % action) (Anthonomus grandis [2]; [9]): superior
- control of the tested insects (percentage reduction in population or feeding damage, % action) (Anthonomus grandis [2]; [10]): superior
- control of the tested insects (percentage reduction in population or feeding damage, % action) (Heliothis virescens [3]; [12]): insufficient
- control of the tested insects (percentage reduction in population or feeding damage, % action) (Heliothis virescens [4]; [9]): superior
- control of the tested insects (percentage reduction in population or feeding damage, % action) (Heliothis virescens [4]; [10]): superior
- control of the tested insects (percentage reduction in population or feeding damage, % action) (Anthonomus grandis [5]; [12]): insufficient
- control of the tested insects (percentage reduction in population or feeding damage, % action) (Spodoptera littoralis [6]; [13]): superior
